Assay results published in ChEMBL document CHEMBL4811263, “Tulipiferamide A, an Alkamide from Liriodendron tulipifera, Exhibits an Anti-Inflammatory Effect via Targeting IKKβ Phosphorylation” (J Nat Prod, 2021).

What was measured:
[1] = tested on: RAW264.7; assay: Antiinflammatory activity in mouse RAW264.7 assessed as inhibition of LPS-induced NO production preincubated for 30 mins followed by LPS stimulation measured after 24 hrs by Griess reagent based assay; format: functional, cell-based
[2] = Inhibition of LPS-indued NF-kappaB activation in mouse RAW264.7 cells preincubated for 30 mins followed by LPS stimulation and measured after 10 hrs by luciferase assay; format: cell-based

Row | IC50 [1] [µM] | IC50 [2] [µM] | SMILES
1 | > 50 | – | COc1c2c(c3c4c(nccc14)C(=O)c1ccccc1-3)OCO2
2 | – | 0.022 | NC(=O)Nc1sc(-c2ccc(F)cc2)cc1C(N)=O
3 | > 50 | – | COc1cc2c3c(c1OC)-c1ccccc1C[C@H]3N(C(C)=O)CC2
4 | > 50 | – | COc1cc(C[C@H]2CO[C@H](c3ccc(O)c(OC)c3)[C@H]2CO)ccc1O [LARICIRESINOL]
5 | 12 | 14.1 | C=C[C@]1(C)C[C@H](O)[C@H]2C(=C)C(=O)O[C@@H]2[C@H]1C(=C)C
6 | 7.3 | 12.2 | C=C1C(=O)O[C@@H]2/C=C(\C)CC/C=C(\C)C[C@@H](O)[C@@H]12 [EUPATOLIDE]
7 | > 50 | – | COc1cc2oc(=O)ccc2c(OC)c1OC [5,6,7-TRIMETHOXYCOUMARIN]
8 | > 50 | – | C=CCc1cc(OC)c(O[C@H](C)Cc2cc(OC)c3c(c2)OCO3)c(OC)c1
9 | 35.5 | – | CNC(=N)NCCC[C@H](N)C(=O)O [TILARGININE]
10 | 19.8 | – | C=C1C(=O)O[C@@H]2/C=C(\C)CC/C=C(\C)C[C@@H](OC(C)=O)[C@@H]12
11 | > 50 | – | CC(=O)N1CCc2cc3c(c4c2[C@H]1Cc1ccccc1-4)OCO3
12 | 6.4 | 17.8 | COc1cc2ccnc3c2c(c1OC)-c1ccccc1C3=O [LYSICAMINE]
13 | > 50 | – | O=C(NCCc1ccccc1)c1ccccc1
14 | > 50 | – | CCCCC/C=C\CCC(=O)NCCc1ccccc1
15 | > 50 | – | C=CCc1cc(OC)c(O)c(OC)c1 [METHOXYEUGENOL]
16 | > 50 | – | CCCCC/C=C/C=C\C(=O)NCCc1ccccc1
17 | 34.2 | 28.5 | COc1c(OC)c2c3c(nccc3c1OC)C(=O)c1cc3c(cc1-2)OCO3 [OXOPHOEBINE]
18 | > 50 | – | CC(=O)N(C)CCc1ccccc1
